According to patent publication US20190255175A1, “ACTIVATION OF TRPA1+ NOCICEPTORS IN THE VAGUS NERVE ATTENUATES SYSTEMIC INFLAMMATION” (THE FEINSTEIN INSTITUTE FOR MEDICAL RESEARCH, priority 2018, published 2019):

Assays:
[1] = Thermoregulation: intraperitoneal body temperature recorded by implant after IL-1β injection; assay type: in vivo, mice; conditions: for Change in ip body temperature: WT mice
Experimental: FIG. 5A-5B. […] Body temperature was recorded using an ETA-F10 temperature implant (DSI New Brighton, Minn.) that was placed in the peritoneal cavity and fixed to the peritoneal wall. After recording the baseline temperature for 1 hr, rmIL-1β (5.0 μg/kg) was administered by i.p injection. Body temperature of wildtype (n=4) and TRPA1 KO mice (n=4) was recorded for 5 hours post injection. ****p<0.0001. B) IL-1β induces a dose-dependent hypothermic response in mice. After recording the baseline temperature for 1 hr, rmIL-1β (0 [n=4], 0.5 [n=4], 50.0 [n=3] μg/kg) was administered by i.p injection. Body temperature was recorded for 5 hours post injection.
Mice were anesthetized with 2.5% isoflurane with an oxygen flow of 1 L/min. Once anesthetized, the mouse was moved to a supine position with the isoflurane maintained at 2.0% during surgery. A midline incision was made above the peritoneal cavity, with a ETA-F10 temperature implant (DSI New Brighton, Minn.) placed in the peritoneal cavity and tacked to the peritoneal wall. The cavity was then closed, and the mouse monitored every day for 3 days. The mouse was allowed to recover for a minimum of five days prior to any manipulation. The mice were placed on the DIS with baseline ip body temperature recorded for 1 hour prior to IL-1β or saline injection. The ip body temperature recording then continued for 5 hours post injection.
Thermoregulation, specifically in cold sensing, is another major function of the TRPA1 ion channel. When housed at approximately 23° C., WT mice injected with murine IL-1β (5 μg/kg) have significant decrease in body temperature (t-test, p<0.0001) peaking at a temperature change of −2.3±0.15° C., while TRPA1 KO mice have no significant change in body temperature after IL-1β (5 μg/kg) peaking at 0.18±0.40° C. (FIG. 5A). […] However, there was no significant change in ip body temperature after saline ([…]) (t-test, p>0.05) (FIG. 5B). This indicates a previously unknown mechanism of IL-1β fever singling through TRPA1+ fibers of the vagus nerve, linking TRPA1's role in both thermoregulation as well as afferent inflammatory signaling through the vague nerve.

[2] = IL-1β induced inflammation: serum and spleen cytokines; assay type: in vivo; conditions: TRPA1 KO mice; after IL-1β administration; 3 hours
Experimental: Mice were injected with 3.2 μg/kg IL-1β ip or saline. Three hours later the mice were euthanized, and blood, spleen, and two brain regions collected. Blood was collected by cardiac puncture. To obtain serum from these samples, blood was allowed to clot for approximately 45 min to 1 h. The blood was then spun at 5,000 rpm for 10 min and 10,000 For 2 min. Supernatants (serum) were collected and stored at −20° C. prior to use. The spleen was homogenized using a bullet blender homogenizer (Next Advance, Averill Park, N.Y., USA) and the recommended bead homogenization kit and protocol in a 4° C. walk-in refrigerator. The homogenized sample was then spun down at 15,000 rpm for 10 min with the supernatants collected and stored at −20° C. Splenic protein level was measured using the Bradford assay. IL-6, IL-1β, KC/Gro (CXCL1), and IL-1β for both serum and spleen were measured on a custom mouse inflammatory electrochemiluminescent kit (Meso Scale Discovery, Gaithersburg, Md., USA) according to manufacturer's recommendations. The brain stem region was collected on ice, using a binocular dissection microscope and placed in the same tube. Brain regions were snap frozen on dry ice and transferred to storage at −80° C.
The serum and splenic tissue of these mice were then analyzed for known downstream signaling molecules of IL-1β, IL-6, IL-1β and KC/GRO (CXCL1).

nodose ganglion neurons = assay: Whole-cell patch clamp recordings of nodose ganglion neurons; assay type: cell-based, mice
Experimental: Whole-cell patch clamp recordings were made with glass pipettes pulled on a P-97 electrode puller (Sutter Instruments, Novato, Calif.). The resistance of the pipettes was 2-4 MΩ when filled with an intracellular solution (in mM: CsCl 140, HEPES 10, EGTA 5, Mg-ATP 2, NaGTP 0.3, MgCl2 2, Phosphocreatine 10, pH 7.25 adjusted with CsOH). Cells were superfused at a rate of 2 ml/min with an external bath solution containing the following (in mM): 150 NaCl, 2.5 KCl, 10 HEPES, 10 D-glucose, 2 CaCl2, and 1 MgCl2, pH 7.3-7.4. Experiments were performed at room temperature (22-24° C.). Currents from neurons were monitored with an Multiclamp 700B amplifier (Molecular Devices, Union City, Calif.), acquired through Digidata 1550B (Molecular Devices) onto a computer using pClamp 11 software (Molecular Devices). Data were analyzed using Clampfit 11 (Molecular Devices). All chemicals used for electrophysiological recordings were purchased from Sigma. All drugs and solutions were made fresh from drug stock solutions.
Using patch clamp recordings, IL-1β responses were recorded in nodose ganglion neurons. Application of IL-1β (20 μg/ml) induced calcium influx as indicated by increase of fluorescence in 6 out of 332 (1.8%) sensory nodose ganglion neurons from VGlut2-GCaMP3 mice. Next, whole-cell patch clamp recordings were carried out on the same neurons that responded to IL-1β in calcium influx analysis. When the membrane potential was held at −65 mV, bath application of IL-1β (20 μg/ml) produced slow inward currents in 4 out of 332 (1.2%) nodose neurons. The amplitude of IL-1β induced currents are 108±23 pA (n=4). […] In current-clamp mode, IL-1β reduced action potential threshold from −25±2 mV to −31±3 mV (n=4). […] To further determine the potential interaction of TRPA1 with IL-1β, nodose ganglion neurons from TRPA1 KO mice were examined in a culture system. […] IL1R1 co-localizes with TRPA1 on nodose ganglion neurons, as was determined using immunohistochemical staining.

**Q.** Which “Peak body temperature change” value ([1]; TRPA1 KO mice, IL-1β 5 μg/kg ip) does the source give for “IL-1β: interleukin 1β; recombinant human IL-1β for nerve recordings, murine (rmIL-1β) for thermoregulation” here?
**A.** 0.18±0.40 °C

**Q.** What about the “Peak body temperature change” value ([1]; WT mice housed at approximately 23° C., murine IL-1β 5 μg/kg ip) of the same substance?
**A.** −2.3±0.15 °C

**Q.** What about the “Change in ip body temperature” value ([1]; IL-1β 0.5 μg/kg) of the same substance?
**A.** significant decreases

**Q.** What about the “Change in ip body temperature” value ([1]; IL-1β 50 μg/kg) of the same substance?
**A.** significant decreases

**Q.** And the “IL-6, IL-1β and KC/GRO (CXCL1) in serum and spleen” value [2]?
**A.** further increases

**Q.** And the “Neurons with slow inward currents” value (nodose ganglion neurons; IL-1β 20 μg/ml bath application, held at −65 mV, 4 out of 332 neurons)?
**A.** 1.2%

**Q.** What about the “Amplitude of IL-1β induced currents” value (nodose ganglion neurons; IL-1β 20 μg/ml, −65 mV, n=4) of the same substance?
**A.** 108±23 pA

**Q.** And the “Action potential threshold after IL-1β” value (nodose ganglion neurons; current-clamp mode, reduced from −25±2 mV, n=4)?
**A.** −31±3 mV
